Experimental findings from ChEMBL document CHEMBL4190370, “Emerging New Targets for the Treatment of Resistant Fungal Infections” (J Med Chem, 2018) are described below.

One may read the MIC as the lowest concentration found to suppress growth. Lower therefore signals inhibition by little substance. The term MIC80 denotes the lowest concentration that inhibits either 80% of growth or 80% of the strains tested, depending on the study. Low readings indicate greater potency, high ones weaker potency. Usually bioavailability stands for the share of a dose that reaches the circulation, judged against a reference dose that is usually intravenous. A lower bioavailability goes with poor availability. The term half-life denotes the time needed for the level to fall by half in the phase considered. Read a high half-life as slow decline. As a reminder, the Ki is a measure of affinity in units of concentration, obtained from inhibition or displacement. A lower Ki goes with tighter binding. What is called MIC90 is an inhibitory concentration at the 90% level, which refers to growth in some studies and to a panel of isolates in others. The term IC50 denotes the concentration that gives 50% inhibition. Higher therefore signals weaker potency in that assay. As usually defined, the Kd is the constant that tells how readily two partners part at equilibrium. Low values mean a tighter complex, high ones a looser complex.

Each structure is given as a SMILES string. In brackets after ≈: the same amount, converted by molar mass.

For series [1], the system named is Candida. Briefly: Antifungal activity against Candida sp. The format is functional.
Series [2] has as its system Candida. The series is described as follows: Antifungal activity against Candida. The class given is functional.
Series [3] has as its system Candida albicans. The series is described as follows: Antifungal activity against fluconazole-susceptable Candida albicans isolate 6 after 24 hrs by microdilution method. The class given is functional. Particulars: isolate 6, 24 h. (Dilution methods test growth across graded concentrations, often in twofold steps.)
The subject of series [4] is Candida albicans. The series is described as follows: Antifungal activity against fluconazole-susceptable Candida albicans isolate 2 after 24 hrs by microdilution method. The format is functional. Particulars: isolate 2, 24 h.
The test system of series [5] is Candida albicans. Briefly: Antifungal activity against fluconazole-susceptable Candida albicans isolate 12 after 24 hrs by microdilution method. To be noted: isolate 12, 24 h. The class given is functional.
For series [6], the system named is Candida albicans. The series is described as follows: Antifungal activity against fluconazole-susceptable Candida albicans isolate 13 after 24 hrs by microdilution method. To be noted: isolate 13, 24 h. The format is functional.
Series [7] concerns Candida albicans. The series is described as follows: Antifungal activity against fluconazole-susceptable Candida albicans isolate 14 after 24 hrs by microdilution method. Particulars: isolate 14, 24 h. The format is functional.
The test system of series [8] is Candida albicans. The series is described as follows: Antifungal activity against fluconazole-susceptable Candida albicans isolate 5 after 24 hrs by microdilution method. The class given is functional. Particulars: isolate 5, 24 h.
In series [9] the test system is Candida albicans. The series is described as follows: Antifungal activity against fluconazole-susceptable Candida albicans isolate 8 after 24 hrs by microdilution method. The class given is functional. To be noted: isolate 8, 24 h.
For series [10], the system named is Candida albicans. The series is described as follows: Antifungal activity against fluconazole-susceptable Candida albicans isolate 15 after 24 hrs by microdilution method. The class given is functional. Particulars: isolate 15, 24 h.
In series [11] the test system is Candida albicans. Briefly: Antifungal activity against fluconazole-resistant Candida albicans isolate 17 after 24 hrs by microdilution method. The format is functional. To be noted: isolate 17, 24 h.
Series [12] concerns Candida albicans. The series is described as follows: Antifungal activity against fluconazole-susceptable Candida albicans isolate 3 after 24 hrs by microdilution method. The class given is functional. Particulars: isolate 3, 24 h.
Series [13] deals with Candida albicans. Briefly: Antifungal activity against fluconazole-susceptable Candida albicans isolate 11 after 24 hrs by microdilution method. The class given is functional. To be noted: isolate 11, 24 h.
For series [14], the system named is Candida albicans. Briefly: Antifungal activity against fluconazole-susceptable Candida albicans isolate 9 after 24 hrs by microdilution method. Particulars: isolate 9, 24 h. The format is functional.
Series [15] concerns Candida albicans. Briefly: Antifungal activity against fluconazole-susceptable Candida albicans isolate 1 after 24 hrs by microdilution method. The class given is functional. Particulars: isolate 1, 24 h.
Series [16] relates to Candida albicans. The series is described as follows: Antifungal activity against fluconazole-resistant Candida albicans isolate 16 after 24 hrs by microdilution method. The format is functional. To be noted: isolate 16, 24 h.
For series [17], the system named is Candida albicans. Briefly: Antifungal activity against fluconazole-susceptable Candida albicans isolate 7 after 24 hrs by microdilution method. The format is functional. Particulars: isolate 7, 24 h.
Series [18] has as its system Candida albicans. The series is described as follows: Antifungal activity against fluconazole-susceptable Candida albicans isolate 10 after 24 hrs by microdilution method. To be noted: isolate 10, 24 h. The class given is functional.
Series [19] deals with Candida albicans. Briefly: Antifungal activity against fluconazole-susceptable Candida albicans isolate 4 after 24 hrs by microdilution method. The class given is functional. Particulars: isolate 4, 24 h.
The nature of series [20]: Oral bioavailability in rat. The class given is ADME, organism-based. Particulars: in vivo.
A short description of series [21]: Oral bioavailability in dog. The format is ADME, organism-based, Canis lupus familiaris. Particulars: in vivo.
Series [22] in a line: Half life in human. The class given is ADME, organism-based. Particulars: in vivo.
The nature of series [23]: Oral bioavailability in rabbit. Particulars: in vivo. The class given is ADME, organism-based, Oryctolagus cuniculus.
The nature of series [24]: Inhibition of Saccharomyces cerevisiae IleRS.
Another series has as its system Aspergillus fumigatus. Briefly: Antifungal activity against Aspergillus fumigatus. The format is functional.
The test system of series [25] is Candida albicans. Briefly: Antifungal activity against Candida albicans. The class given is functional.
Another series concerns Cryptococcus neoformans. The series is described as follows: Antifungal activity against Cryptococcus neoformans. The format is functional.
The subject of series [26] is Candida albicans. Briefly: Antifungal activity against Candida albicans infected in rat model of systemic candidiasis. The format is functional, organism-based.
The next series has as its system HepG2. Briefly: Cytotoxicity in human HepG2 cells. The class given is cell-based.
Series [27] has as its target T1, Mediator of RNA polymerase II transcription subunit 15 (Candida glabrata (strain ATCC 2001 / CBS 138 / JCM 3761 / NBRC 0622 /NRRL Y-65) (Yeast) (Torulopsis glabrata), UniProt Q6FRS9).
T1 sequence (Q6FRS9 whole entry): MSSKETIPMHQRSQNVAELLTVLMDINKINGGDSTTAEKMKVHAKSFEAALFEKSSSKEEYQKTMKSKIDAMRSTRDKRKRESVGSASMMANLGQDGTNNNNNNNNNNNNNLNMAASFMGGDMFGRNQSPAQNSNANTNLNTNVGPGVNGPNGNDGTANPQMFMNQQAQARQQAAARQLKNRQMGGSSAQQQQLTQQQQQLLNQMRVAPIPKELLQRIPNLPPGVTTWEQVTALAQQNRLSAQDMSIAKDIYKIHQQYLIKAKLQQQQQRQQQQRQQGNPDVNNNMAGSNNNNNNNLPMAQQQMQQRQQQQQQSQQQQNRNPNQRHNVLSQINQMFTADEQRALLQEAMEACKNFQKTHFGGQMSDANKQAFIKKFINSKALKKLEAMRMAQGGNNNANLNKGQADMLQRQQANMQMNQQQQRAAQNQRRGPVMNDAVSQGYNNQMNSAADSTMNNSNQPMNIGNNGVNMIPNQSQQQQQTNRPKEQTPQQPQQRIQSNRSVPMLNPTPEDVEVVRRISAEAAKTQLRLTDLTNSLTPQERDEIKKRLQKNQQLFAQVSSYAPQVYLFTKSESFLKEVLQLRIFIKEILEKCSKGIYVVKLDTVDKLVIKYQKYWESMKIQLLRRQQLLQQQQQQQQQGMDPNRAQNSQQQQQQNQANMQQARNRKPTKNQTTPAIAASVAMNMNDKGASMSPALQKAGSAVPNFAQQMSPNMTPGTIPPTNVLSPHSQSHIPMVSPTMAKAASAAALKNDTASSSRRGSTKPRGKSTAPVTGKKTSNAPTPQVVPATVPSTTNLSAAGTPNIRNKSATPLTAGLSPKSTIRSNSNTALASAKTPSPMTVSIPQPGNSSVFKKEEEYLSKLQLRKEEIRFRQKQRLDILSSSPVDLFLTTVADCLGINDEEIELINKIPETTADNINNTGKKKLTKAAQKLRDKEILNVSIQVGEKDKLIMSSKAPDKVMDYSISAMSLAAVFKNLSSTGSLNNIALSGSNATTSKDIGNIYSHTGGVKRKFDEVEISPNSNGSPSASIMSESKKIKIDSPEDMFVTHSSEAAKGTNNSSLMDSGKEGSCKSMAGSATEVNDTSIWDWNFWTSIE
The series is described as follows: Binding affinity to Candida glabrata Gal11A KIX domain. Further details: species or system Nakaseomyces glabratus.

Series [28] can be described thus: Inhibition of Saccharomyces cerevisiae LeuRs.

Take `CN(C)c1ccc(/C=C/c2cc(C(C)(C)C)[o+]c(C(C)(C)C)c2)cc1.[O-][Cl+3]([O-])([O-])[O-]`: the minimum inhibitory concentration (MIC) in the series on Candida [1] lay within 0.5 to 1 µg/mL; against Candida [2], 0.2 to 6.25 µg/mL.
`COc1ccc2cc1Oc1ccc(cc1)C[C@@H]1c3cc(c(OC)cc3CCN1C)Oc1c(OC)c(OC)cc3c1[C@H](C2)N(C)CC3` [ISOTETRANDRINE]: the MIC80 against Candida albicans [3], in the series with Candida albicans [4], in the series on Candida albicans [5], in the series with Candida albicans [6], against Candida albicans [7] and against Candida albicans [8] was 64 µg/mL (≈ 103 µM) in each case. Further, the MIC80 against Candida albicans [9], against Candida albicans [10], with Candida albicans [11], against Candida albicans [12], in the series with Candida albicans [13] and against Candida albicans [14] was 64 µg/mL (≈ 103 µM) in each case. The MIC80 against Candida albicans [15], in the series with Candida albicans [16], against Candida albicans [17], with Candida albicans [18] and against Candida albicans [19] was 64 µg/mL (≈ 103 µM) in each case.
Regarding `C=C1C[C@H](N)[C@H](C(=O)O)C1` [ICOFUNGIPEN], the bioavailability in series [20], in series [21] and in [23] was 100% throughout. The same compound gave a half-life in series [22] of 7 h. The compound further yielded a Ki in series [24] of 1000 µM.
As for `Cc1c(COc2ccc(F)c(F)c2F)oc2cccc(OCCCNCc3cccnc3)c12`, the MIC stood at 25 µg/mL (≈ 54.8 µM) in the series on Aspergillus fumigatus and 0.05 µg/mL (≈ 0.11 µM) against Candida albicans [25]. This compound also gave an MIC90 against Cryptococcus neoformans of 3.13 µg/mL (≈ 6.86 µM). In addition, in the series on Candida albicans [26], the EC50 is 7.1 mg/kg.
On to `N#CCC(=O)NNC(=S)Nc1ccc(Cl)c(Cl)c1`, for which, in the series on HepG2, inhibition was half-maximal at 100 µM (IC50). The same compound returned an equilibrium dissociation constant (Kd) in series [27] of 0.32 µM.
`OB1OCc2cc(F)ccc21` [TAVABOROLE]: the IC50 in series [28] worked out at 2.1 µM.
